PubChem BioAssay (NCI)
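Tested at 5 concentrations; 48 h exposure; 96-well plates; endpoints linearly interpolated, else capped at highest concentration. GI50 = concentration required for 50% inhibition of growth. The concentration for full growth arrest is given as TGI.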

Tests used:
Test in all cases: NCI-60 cell line screen, 48 h
[1] = test system: PC-3 prostate
[2] = test system: MDA-MB-435
[3] = test system: EKVX NSCLC
[4] = test system: UACC-257 melanoma
[5] = test system: M14 melanoma
[6] = test system: LOX IMVI melanoma
[7] = test system: COLO 205 colon
[8] = test system: NCI-H522 lung
[9] = test system: HCT-15 colon
[10] = test system: OVCAR-3 ovarian
[11] = test system: SK-MEL-5 melanoma
[12] = test system: KM12 colon
[13] = test system: A498 renal
[14] = test system: RPMI-8226 leukemia
[15] = test system: MALME-3M melanoma
[16] = test system: ACHN renal
[17] = test system: SR leukemia
[18] = test system: HL-60(TB) leukemia
[19] = test system: OVCAR-4 ovarian
[20] = test system: NCI-H460 lung
[21] = test system: A549 NSCLC
[22] = test system: SF-539 CNS
[23] = test system: 786-0 renal
[24] = test system: U251 CNS
[25] = test system: UACC-62 melanoma
[26] = test system: MDA-MB-231 breast
[27] = test system: DU-145 prostate
[28] = test system: SF-295 CNS
[29] = test system: CAKI-1 renal
[30] = test system: SK-OV-3 ovarian
[31] = test system: BT-549 breast
[32] = test system: SN12C renal
[33] = test system: SNB-19 CNS
[34] = test system: OVCAR-5 ovarian
[35] = test system: MCF7 breast
[36] = test system: K-562 leukemia
[37] = test system: NCI-H23 lung
[38] = test system: RXF 393 renal
[39] = test system: SK-MEL-28 melanoma
[40] = test system: OVCAR-8 ovarian
[41] = test system: NCI-H226 lung
[42] = test system: T-47D breast
[43] = test system: SF-268 CNS
[44] = test system: HCC-2998 colon
[45] = test system: MDA-MB-468 breast
[46] = test system: SNB-75 CNS
[47] = test system: HOP-62 NSCLC
[48] = test system: SW-620 colon
[49] = test system: SK-MEL-2 melanoma
[50] = test system: HS 578T breast
[51] = test system: HCT-116 colon
[52] = test system: MOLT-4 leukemia
[53] = test system: TK-10 renal
[54] = test system: HT29 colon
[55] = test system: HOP-92 NSCLC

COc1cc(C2CC(c3ccc(Cl)cc3)=Nc3c(N)nc(N)nc3N2)ccc1Oc1nc(Nc2ccc(F)cc2)nc(N(C)C)n1 (stereo not given)
GI50 [1]: 6.16 µM
TGI [1]: > 100 µM
GI50 [2]: > 100 µM
TGI [2]: > 100 µM
GI50 [3]: > 100 µM
TGI [3]: > 100 µM
GI50 [4]: > 100 µM
TGI [4]: > 100 µM
GI50 [5]: > 100 µM
TGI [5]: > 100 µM
GI50 [6]: 47.8 µM
TGI [6]: > 100 µM
GI50 [7]: > 100 µM
TGI [7]: > 100 µM
GI50 [8]: > 100 µM
TGI [8]: > 100 µM
GI50 [9]: 76.6 µM
TGI [9]: > 100 µM
GI50 [10]: > 100 µM
TGI [10]: > 100 µM
GI50 [11]: 17.2 µM
TGI [11]: 52 µM
GI50 [12]: 40.1 µM
TGI [12]: > 100 µM
GI50 [13]: > 100 µM
TGI [13]: > 100 µM
GI50 [14]: 26.4 µM
TGI [14]: > 100 µM
GI50 [15]: > 100 µM
TGI [15]: > 100 µM
GI50 [16]: > 100 µM
TGI [16]: > 100 µM
GI50 [17]: 3.41 µM
TGI [17]: > 100 µM
GI50 [18]: 44.7 µM
TGI [18]: > 100 µM
GI50 [19]: 18.9 µM
TGI [19]: > 100 µM
GI50 [20]: 42.3 µM
TGI [20]: > 100 µM
GI50 [21]: > 100 µM
TGI [21]: > 100 µM
GI50 [22]: > 100 µM
TGI [22]: > 100 µM
GI50 [23]: > 100 µM
TGI [23]: > 100 µM
GI50 [24]: > 100 µM
TGI [24]: > 100 µM
GI50 [25]: > 100 µM
TGI [25]: > 100 µM
GI50 [26]: 6.73 µM
TGI [26]: > 100 µM
GI50 [27]: > 100 µM
TGI [27]: > 100 µM
GI50 [28]: > 100 µM
TGI [28]: > 100 µM
GI50 [29]: 3.38 µM
TGI [29]: > 100 µM
GI50 [30]: > 100 µM
TGI [30]: > 100 µM
GI50 [31]: 35.5 µM
TGI [31]: > 100 µM
GI50 [32]: > 100 µM
TGI [32]: > 100 µM
GI50 [33]: > 100 µM
TGI [33]: > 100 µM
GI50 [34]: > 100 µM
TGI [34]: > 100 µM
GI50 [35]: 9.91 µM
TGI [35]: > 100 µM
GI50 [36]: 4.5 µM
TGI [36]: > 100 µM
GI50 [37]: > 100 µM
TGI [37]: > 100 µM
GI50 [38]: 2.46 µM
TGI [38]: > 100 µM
GI50 [39]: > 100 µM
TGI [39]: > 100 µM
GI50 [40]: > 100 µM
TGI [40]: > 100 µM
GI50 [41]: > 100 µM
TGI [41]: > 100 µM
GI50 [42]: > 100 µM
TGI [42]: > 100 µM
GI50 [43]: > 100 µM
TGI [43]: > 100 µM
GI50 [44]: 45.3 µM
TGI [44]: > 100 µM
GI50 [45]: 17.8 µM
TGI [45]: > 100 µM
GI50 [46]: 3.24 µM
TGI [46]: > 100 µM
GI50 [47]: > 100 µM
TGI [47]: > 100 µM
GI50 [48]: > 100 µM
TGI [48]: > 100 µM
GI50 [49]: > 100 µM
TGI [49]: > 100 µM
GI50 [50]: 84.8 µM
TGI [50]: > 100 µM
GI50 [51]: 12.5 µM
TGI [51]: > 100 µM
GI50 [52]: 8.54 µM
TGI [52]: > 100 µM
GI50 [53]: > 100 µM
TGI [53]: > 100 µM
GI50 [54]: 29.4 µM
TGI [54]: > 100 µM
GI50 [55]: 3 µM
TGI [55]: > 100 µM
